{"source": "the supplement of paper PMC10307832", "experiment_in_all_cases": "relative viability (nuclei count vs DMSO), 5 days (fraction); higher = more cells survive", "key": {"[1]": {"test_system": "201T", "in_short": "(§1)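 Lung cancer cell lines in 1536-well plates got either a single drug or a fixed anchor-drug dose together with five library-drug doses (not always all listed) in √10 steps, by pin tool, on the day after seeding. Nuclei were counted after 5 days, and relative viability is the treated-to-vehicle ratio of nuclei counts. Values are medians of duplicate plates.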"}, "[2]": {"test_system": "COR-L 105", "in_short": "as §1"}, "[3]": {"test_system": "ChaGo-K-1", "in_short": "as §1"}, "[4]": {"test_system": "EPLC-272H", "in_short": "as §1"}, "[5]": {"test_system": "H3255", "in_short": "as §1"}, "[6]": {"test_system": "HCC-78", "in_short": "as §1"}, "[7]": {"test_system": "HCC-827", "in_short": "as §1"}, "[8]": {"test_system": "LC-2-ad", "in_short": "as §1"}, "[9]": {"test_system": "LCLC-97TM1", "in_short": "as §1"}, "[10]": {"test_system": "NCI-H1666", "in_short": "as §1"}, "[11]": {"test_system": "NCI-H1915", "in_short": "as §1"}, "[12]": {"test_system": "NCI-H2087", "in_short": "as §1"}}}
{"smiles": "CC1(C)CCC(c2ccc(Cl)cc2)=C(CN2CCN(c3ccc(C(=O)NS(=O)(=O)c4ccc(N[C@H](CCN5CCOCC5)CSc5ccccc5)c(S(=O)(=O)C(F)(F)F)c4)cc3)CC2)C1", "note": "[Navitoclax] + CC(=O)c1c(C)c2cnc(Nc3ccc(N4CCNCC4)cn3)nc2n(C2CCCC2)c1=O [Palbociclib] (partner 0.5 µM)", "values": [{"measurement": "relative viability", "setting": "[1]; first compound 0.005 µM", "value": 0.342}, {"measurement": "relative viability", "setting": "[1]; first compound 0.01581 µM", "value": 0.347}, {"measurement": "relative viability", "setting": "[1]; first compound 0.05 µM", "value": 0.362}, {"measurement": "relative viability", "setting": "[1]; first compound 0.1581 µM", "value": 0.365}, {"measurement": "relative viability", "setting": "[1]; first compound 0.5 µM", "value": 0.355}, {"measurement": "relative viability", "setting": "[2]; first compound 0.005 µM", "value": 0.408}, {"measurement": "relative viability", "setting": "[2]; first compound 0.01581 µM", "value": 0.46}, {"measurement": "relative viability", "setting": "[2]; first compound 0.05 µM", "value": 0.39}, {"measurement": "relative viability", "setting": "[2]; first compound 0.1581 µM", "value": 0.427}, {"measurement": "relative viability", "setting": "[2]; first compound 0.5 µM", "value": 0.34}, {"measurement": "relative viability", "setting": "[3]; first compound 0.005 µM", "value": 0.971}, {"measurement": "relative viability", "setting": "[3]; first compound 0.01581 µM", "value": 0.926}, {"measurement": "relative viability", "setting": "[3]; first compound 0.05 µM", "value": 0.492}, {"measurement": "relative viability", "setting": "[3]; first compound 0.1581 µM", "value": 0.903}, {"measurement": "relative viability", "setting": "[3]; first compound 0.5 µM", "value": 0.954}, {"measurement": "relative viability", "setting": "[4]; first compound 0.005 µM", "value": 0.325}, {"measurement": "relative viability", "setting": "[4]; first compound 0.05 µM", "value": 0.324}, {"measurement": "relative viability", "setting": "[4]; first compound 0.1581 µM", "value": 0.31}, {"measurement": "relative viability", "setting": "[4]; first compound 0.5 µM", "value": 0.297}, {"measurement": "relative viability", "setting": "[5]; first compound 0.005 µM", "value": 0.304}, {"measurement": "relative viability", "setting": "[5]; first compound 0.01581 µM", "value": 0.329}, {"measurement": "relative viability", "setting": "[5]; first compound 0.05 µM", "value": 0.3}, {"measurement": "relative viability", "setting": "[5]; first compound 0.1581 µM", "value": 0.312}, {"measurement": "relative viability", "setting": "[5]; first compound 0.5 µM", "value": 0.316}, {"measurement": "relative viability", "setting": "[6]; first compound 0.005 µM", "value": 0.509}, {"measurement": "relative viability", "setting": "[6]; first compound 0.01581 µM", "value": 0.428}, {"measurement": "relative viability", "setting": "[6]; first compound 0.05 µM", "value": 0.441}, {"measurement": "relative viability", "setting": "[6]; first compound 0.1581 µM", "value": 0.448}, {"measurement": "relative viability", "setting": "[6]; first compound 0.5 µM", "value": 0.489}, {"measurement": "relative viability", "setting": "[7]; first compound 0.005 µM", "value": 0.582}, {"measurement": "relative viability", "setting": "[7]; first compound 0.01581 µM", "value": 0.528}, {"measurement": "relative viability", "setting": "[7]; first compound 0.05 µM", "value": 0.374}, {"measurement": "relative viability", "setting": "[7]; first compound 0.1581 µM", "value": 0.477}, {"measurement": "relative viability", "setting": "[7]; first compound 0.5 µM", "value": 0.437}, {"measurement": "relative viability", "setting": "[8]; first compound 0.005 µM", "value": 0.505}, {"measurement": "relative viability", "setting": "[8]; first compound 0.01581 µM", "value": 0.452}, {"measurement": "relative viability", "setting": "[8]; first compound 0.05 µM", "value": 0.456}, {"measurement": "relative viability", "setting": "[8]; first compound 0.1581 µM", "value": 0.413}, {"measurement": "relative viability", "setting": "[8]; first compound 0.5 µM", "value": 0.412}, {"measurement": "relative viability", "setting": "[9]; first compound 0.005 µM", "value": 0.239}, {"measurement": "relative viability", "setting": "[9]; first compound 0.01581 µM", "value": 0.215}, {"measurement": "relative viability", "setting": "[9]; first compound 0.05 µM", "value": 0.166}, {"measurement": "relative viability", "setting": "[9]; first compound 0.1581 µM", "value": 0.203}, {"measurement": "relative viability", "setting": "[9]; first compound 0.5 µM", "value": 0.241}, {"measurement": "relative viability", "setting": "[10]; first compound 0.005 µM", "value": 0.623}, {"measurement": "relative viability", "setting": "[10]; first compound 0.01581 µM", "value": 0.69}, {"measurement": "relative viability", "setting": "[10]; first compound 0.05 µM", "value": 0.666}, {"measurement": "relative viability", "setting": "[10]; first compound 0.1581 µM", "value": 0.665}, {"measurement": "relative viability", "setting": "[10]; first compound 0.5 µM", "value": 0.726}, {"measurement": "relative viability", "setting": "[11]; first compound 0.005 µM", "value": 0.585}, {"measurement": "relative viability", "setting": "[11]; first compound 0.01581 µM", "value": 0.544}, {"measurement": "relative viability", "setting": "[11]; first compound 0.05 µM", "value": 0.499}, {"measurement": "relative viability", "setting": "[11]; first compound 0.1581 µM", "value": 0.507}, {"measurement": "relative viability", "setting": "[11]; first compound 0.5 µM", "value": 0.509}, {"measurement": "relative viability", "setting": "[12]; first compound 0.005 µM", "value": 0.22}, {"measurement": "relative viability", "setting": "[12]; first compound 0.01581 µM", "value": 0.244}]}
